In patent US12465609B2, “Methods of treating patients suffering from a disease condition or disorder that is associated with an increased glutamate level” (veriNOS operations GmbH, priority 2022, dated 2025):

Experiments:
[1] = tested on: plasma glutamate; settings: neurosurgical patients, anesthesia; cited from earlier work
[2] = tested on: blood glutamate levels; settings: rat; cited from earlier work
[3] = tested on: nitric oxide synthase (NOS) / spinal NR2B-containing NMDA receptors; settings: rats, cited from earlier work
[4] = Plasma pharmacokinetics after single rectal administration of VAS203 gel in rabbits; type: in vivo
Procedure: In this Example, VAS203 was formulated as a gel at a concentration of 450 mg VAS203/ml for single rectal administration in rabbits. This formulation of VAS203 as a gel (450 mg/ml) was filled in 2 ml syringes pact in foil with an oxygen absorber.
Six rabbits were dosed with 1.5 ml of VAS203 gel (corresponding to a dosage of about 200 mg VAS203/kg body weight). Blood collection was carried out at pre-dose, 10 min, 20 min, 40 min, 1 h, 2 h, 3 h, 4 h, 5 h, 6 h, and 20-26 h after rectal administration. The whole blood samples (ca. 1-2 ml sufficient to obtain approx. 0.3 mL EDTA plasma/animal/sampling time), were collected into pre-cooled EDTA vials. To stabilise the blood samples, 1 mg Dithioerythritol (DTE) was added to approx. 1 mL blood. Within 15 minutes of blood collection the samples were centrifuged at 4° C. for 10 minutes. The plasma was transferred to vials and immediately frozen and stored at −80° C. for analysis.
The plasma concentrations (in μg/L) of VAS203, 7,8-Dihydroaminobiopterin (VAS3384, ABH2, the compound of formula (II) as shown in here) and Aminobiopterin (VAS3382, AB) were measured by liquid chromatography mass spectrometry (LC-MS).

[5] = Exposure control (pharmacokinetics) in NOSTRA III patients; type: in vivo, human; settings: TBI patients; for mean absolute concentration 12 hours after end of infusion / mean absolute concentration at the end of the infusion: Ronopterin 17 mg/kg infused for 48 hours
Procedure: An exposure control was performed with samples collected after end of infusion and 12 hours after end of infusion.

[6] = tested on: C57 BL/6 mice, controlled cortical impact (CCI) model; assay: Controlled cortical impact (CCI) model in mice, intracranial pressure (ICP); type: in vivo; settings: for therapeutic activity of metabolites of VAS203: mouse, in vivo
Text: The primary objective of this experiment was the characterization of the intracranial pressure (ICP) reduction by VAS3384 in the controlled cortical impact (CCI) model in mice. The secondary objective was characterization of the neuroprotective effect (reduction of the lesion volume) of VAS3384 in the controlled cortical impact model in mice.
• Test compound A • Denomination: VAS 3384 • Active agent: 4-Amino-4-desoxy-7,8-dihydrobiopterin-dihydrochloride, obtained from Schircks Laboratories, Bauma, Switzerland • Detailed composition: VAS 3384 dissolved in sodium phosphate buffer (PBS) pH 7.4 • Formulation method: 15 mg of the test compound (VAS 3384) are dissolved in 500 μl PBS, pH 7.4. The solution is neutralized with 72 μl 1 N NaOH and filled up with 428 μl water (check pH). • Final concentration of active agent: 15 mg/ml • Appearance: yellow, clear solution • Storage (solid test compound): −20° C. • Dose applied: 560 mg/kg or 37.3 ml/kg • Way of administration: intravenous injection/infusion • Negative control • Denomination: sodium phosphate buffer (PBS) • Active agent: none • Detailed composition: Na2HPO4, NaH2PO4, 100 mM pH 7.4 • Formulation method: ready for use • Final concentration of active agent: not applicable • Appearance: colourless, clear solution • Expiration date: 3 months after preparation • Volume applied: 37.3 ml/kg • Way of administration: intravenous injection/infusion Experimental Procedure
The animals (C57 BL/6 mice), under Dormicum/Methidomidin/Fentanyl-narcosis were fixed in a stereo tactical frame and the scalp was opened with a cut along the median. The skull bone
was laid open and disinfected with H2O2. A hole of approx. 1.2 mm diameter was then drilled into the skull (Bregma 0.4-0.4 mm). The ICP-probe was introduced through this hole. The V. jugularis was be laid open and a catheter introduced. This catheter was introduced in the neck subcutaneously and fixed on the cap of the cage with a protective spiral of metal. This setup permitted an infusion in awake animals. The skull was opened above of the right cortex and mechanically traumatized (CCI model). The skullcap was then closed with the removed bone.
Mice 1-9: 10 minutes after the trauma the animals got an intravenous bolus injection of 20 mg/kg VAS 3384 (=1.33 ml/kg) followed by an infusion of 1.5 mg/kg/min (=100 μl/kg/min) VAS 3384 over six hours to maintain the dose. After six hours, after termination of the infusion, and after 24 hours the ICP of the animals was measured. After 24 hours the animals were sacrificed, the brains dissected and the lesion volume determined by Nissl's method.
Mice 10-18: 10 minutes after the trauma the animals received an intravenous bolus injection of 1.33 ml/kg PBS followed by an infusion of 100 μl/kg/min PBS over six hours. After six hours, after the termination of the infusion, and after 24 hours the ICP of the animals was measured.
At the end of the observation period animals were sacrificed by cervical dislocation in deep halothane anaesthesia. The brains were carefully removed, frozen in powdered dry ice, and stored at −20° C. until further use. Ten μm coronal sections were prepared every 500 μm on a cryostat (CryoStar HM 560, Microm, Walldorf, Germany) and stained with cresyl violet. Sections were photographed with a digital camera system. The contusion area, the area of the non-traumatized tissue of the ipsilateral hemisphere, and the area of the contralateral hemisphere were determined on the digitized images with a standard image analysis software (Optimate 6.51, Media Cybernetics, Silver Spring, MD, USA) by an investigator blinded to the treatment of the animals. In order to correct for the swelling of contused tissue, the contusion area was calculated by subtracting the area of the non-traumatized tissue of the ipsilateral hemisphere from the area of the contralateral hemisphere. […]

[7] = biological target: iNOS (Homo sapiens, UniProt P35228); assay: In vitro iNOS inhibition; type: biochemical
[8] = rabbits, single rectal VAS203 gel, about 200 mg/kg

## FC(F)OC(Cl)C(F)(F)F (stereo not drawn) [Isoflurane]
[1]
  plasma glutamate: significantly increase

## N[C@@H](Cc1cc(I)c(Oc2cc(I)c(O)c(I)c2)c(I)c1)C(=O)O [L-thyroxine]
[2]
  blood glutamate levels: increased

## C[C@@H](CN1CCC(Cc2ccccc2)CC1)[C@@H](O)c1ccc(O)cc1 [Ro25-6981]
[3]; intrathecal injection
  oxaliplatin-increased intensity of NADPH diaphorase staining in the superficial layer of spinal dorsal horn: reversed

## CC(O)C(O)C1=Nc2c(N)nc(N)nc2NC1 [VAS3384, 4-Amino-(6R,S)-7,8-dihydro-L-biopterin]
[4]; rabbit, in vivo, 200 mg/kg
  half-life: ~1.33 h
[5]
  elimination 12 hours after end of infusion: 56%
  mean absolute concentration 12 hours after end of infusion: 476 ng/mL
  mean absolute concentration at the end of the infusion: 1071 ng/mL
[6]; CCI mice, i.v. infusion of 560 mg/kg over 6 h, mean +/- SD, n=9/group, placebo 14.1+/−1.8, p=0.0005
  ICP after 6 hours: 10.4+/−1.9
[6]; CCI mice, i.v. infusion of 560 mg/kg over 6 h, placebo 10.7+/−2.3, non-significant
  ICP after 24 hours: 10.3+/−1.7
[6]; infusion of 560 mg/kg for six hours, starting 10 minutes after CCI
  reduction of the increased ICP compared with the placebo group: significantly reduction of the increased ICP
[6]
  therapeutic activity of metabolites of VAS203: still active
[7]
  IC50: 12 µM
  potency to inhibit the i-NOS in comparison to VAS203: about ten times less potency

## O=[N+]([O-])c1cccc2cn[nH]c12 [7-nitroindazole]
[3]
  oxaliplatin-induced pain behavior: significantly suppressed

## COC(=O)[C@@H](N)CCCNC(=N)N[N+](=O)[O-] [L-NAME]
[3]
  oxaliplatin-induced pain behavior: significantly suppressed

## CC(C)c1cccc(C(C)C)c1O [propofol]
[1]
  plasma glutamate: significantly increase

## C[C@H](O)[C@@H](O)c1cnc2nc(N)nc(N)c2n1 [aminobiopterin, Aminobiopterin]
[4]; [8]
  elimination half-life: approximately 4 hours
  time to reach plateau of plasma concentration: approx. 50 minutes
[5]
  mean absolute concentration 12 hours after end of infusion: 37 ng/mL
  mean absolute concentration at the end of the infusion: 52 ng/mL
[6]
  therapeutic activity of metabolites of VAS203: no therapeutic activity
